# From patent US20260285850A1, “SUBSTITUTED OXAZOLIDINONES AND IMIDAZOLINONES AS HERBICIDES” (FMC CORPORATION, priority 2023, published 2026)
# Assays:
# Assay type in all cases: in vivo
# corn (Zea mays) [1] = test: Test A postemergence application, visual injury rating 0-100
# How it was run: (§1)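 Rating: visual, day 10, untreated plants as reference, 0 no effect to 100 full control. Plants were in loam-sand and were treated either preemergence via directed soil spray or postemergence at the one- to two-leaf stage.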
# [2] = test system: galium (catchweed bedstraw, Galium aparine); test: as above
# How it was run: as §1
# [3] = test system: palmer (palmer amaranth, palmer pigweed, Amaranthus palmeri); test: as above
# How it was run: as §1
# [4] = test system: blackgrass (Alopecurus myosuroides); test: as above
# How it was run: as §1
# [5] = test system: oat, wild (wild oat, Avena fatua); test: as above
# How it was run: as §1
# [6] = test system: green foxtail (Setaria viridis); test: as above
# How it was run: as §1
# [7] = test system: ragweed (common ragweed, Ambrosia artemisiifolia); test: as above
# How it was run: as §1
# kochia (Bassia scoparia) [8] = test: as above
# How it was run: as §1
# [9] = test system: horseweed (Erigeron canadensis); test: as above
# How it was run: as §1
# soybean (Glycine max) [10] = test: as above
# How it was run: as §1
# [11] = test system: wheat (Triticum aestivum); test: as above
# How it was run: as §1
# [12] = test system: barnyardgrass (Echinochloa crus-galli); test: as above
# How it was run: as §1
# [13] = test system: ryegrass, Italian (italian ryegrass, Lolium multiflorum); test: as above
# How it was run: as §1
# rice (Oryza sativa) = test: Test B flooded paddy test, visual plant response rating 0-100; conditions: 250 g ai/ha, Flood, applied to paddy water, evaluated after 13 days
# How it was run: (§2)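 Paddy-water application: test compounds went directly into water flooded 3 cm above the soil surface, with plants at 2 leaves. After a 13-day greenhouse period, responses were judged by eye relative to controls; a dash marks an untested entry.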
# [14] = test system: sedge, umbrella (small-flower umbrella sedge, Cyperus difformis); test: as above; conditions: 250 g ai/ha, Flood, applied to paddy water, evaluated after 13 days
# How it was run: as §2
# [15] = test system: ducksalad (Heteranthera limosa); test: as above; conditions: 250 g ai/ha, Flood, applied to paddy water, evaluated after 13 days
# How it was run: as §2
# [16] = test system: barnyardgrass (Echinochloa crusgalli); test: as above; conditions: 250 g ai/ha, Flood, applied to paddy water, evaluated after 13 days
# How it was run: as §2
# corn (Zea mays) [17] = test: Test A preemergence soil spray, visual injury rating 0-100; conditions: 10 days
# How it was run: as §1
# [18] = test system: palmer (palmer amaranth, palmer pigweed, Amaranthus palmeri); test: as above; conditions: 10 days
# How it was run: as §1
# [19] = test system: blackgrass (Alopecurus myosuroides); test: as above; conditions: 10 days
# How it was run: as §1
# [20] = test system: oat, wild (wild oat, Avena fatua); test: as above; conditions: 10 days
# How it was run: as §1
# [21] = test system: green foxtail (Setaria viridis); test: as above; conditions: 10 days
# How it was run: as §1
# [22] = test system: ragweed (common ragweed, Ambrosia artemisiifolia); test: as above; conditions: 10 days
# How it was run: as §1
# kochia (Bassia scoparia) [23] = test: as above; conditions: 16 g ai/ha, 0 to 100 scale, 10 days
# How it was run: as §1
# soybean (Glycine max) [24] = test: as above; conditions: 10 days
# How it was run: as §1
# [25] = test system: wheat (Triticum aestivum); test: as above; conditions: 10 days
# How it was run: as §1
# [26] = test system: barnyardgrass (Echinochloa crus-galli); test: as above; conditions: 10 days
# How it was run: as §1
# [27] = test system: ryegrass, Italian (italian ryegrass, Lolium multiflorum); test: as above; conditions: 10 days
# How it was run: as §1
# [28] = 62 g ai/ha, postemergence, 10 days, 0 = no effect, 100 = complete control
# [29] = Postemergence, 16 g ai/ha, greenhouse 10 days, 0 no effect, 100 complete control
# [30] = 62 g ai/ha, 0 = no effect, 100 = complete control
smiles,measurement,setting,value
Cc1cc(C)cc(N2CC(C)(C(=O)NC3C=CC(C(=O)O)C3)OC2=O)c1 (stereo not drawn) [Compound 126],Corn plant response rating (0-100),corn (Zea mays) [1]; [28],100
same,Corn plant response rating (0 to 100 scale),corn (Zea mays) [1]; [29],20
same,Galium plant response rating (0-100),[2]; [28],80
same,Galium plant response rating (0 to 100 scale),[2]; [29],70
same,"Pigweed, Palmer plant response rating (0-100)",[3]; [28],30
same,"Pigweed, Palmer plant response rating (0 to 100 scale)",[3]; [29],10
same,Blackgrass plant response rating (0-100),[4]; [28],90
same,Blackgrass plant response rating (0 to 100 scale),[4]; [29],60
same,"Oat, Wild plant response rating (0-100)",[5]; [28],90
same,"Oat, Wild plant response rating (0 to 100 scale)",[5]; [29],30
same,"Foxtail, Green plant response rating (0-100)",[6]; [28],30
same,"Foxtail, Green plant response rating (0 to 100 scale)",[6]; [29],0
same,Ragweed plant response rating (0-100),[7]; [28],30
same,Ragweed plant response rating (0 to 100 scale),[7]; [29],0
same,Kochia plant response rating (0-100),kochia (Bassia scoparia) [8]; [28],30
same,Kochia plant response rating (0 to 100 scale),kochia (Bassia scoparia) [8]; [29],0
same,Horseweed plant response rating (0-100),[9]; [28],20
same,Horseweed plant response rating (0 to 100 scale),[9]; [29],0
same,Soybean plant response rating (0-100),soybean (Glycine max) [10]; [28],60
same,Soybean plant response rating (0 to 100 scale),soybean (Glycine max) [10]; [29],0
same,Wheat plant response rating (0-100),[11]; [28],90
same,Wheat plant response rating (0 to 100 scale),[11]; [29],30
same,Barnyardgrass plant response rating (0-100),[12]; [28],90
same,Barnyardgrass plant response rating (0 to 100 scale),[12]; [29],50
same,"Ryegrass, Italian plant response rating (0-100)",[13]; [28],60
same,"Ryegrass, Italian plant response rating (0 to 100 scale)",[13]; [29],30
same,"Plant response rating, Rice (0 to 100 scale, 0 is no effect and 100 is complete control)",rice (Oryza sativa),5
same,"Plant response rating, Sedge, Umbrella (0 to 100 scale, 0 is no effect and 100 is complete control)",[14],35
same,"Plant response rating, Ducksalad (0 to 100 scale, 0 is no effect and 100 is complete control)",[15],55
same,"Plant response rating, Barnyardgrass (0 to 100 scale, 0 is no effect and 100 is complete control)",[16],25
same,Corn plant response rating,"corn (Zea mays) [17]; 16 g ai/ha, 0 to 100 scale",0
same,Corn plant response rating (0-100),corn (Zea mays) [17]; [30],40
same,"Pigweed, Palmer plant response rating","[18]; 16 g ai/ha, 0 to 100 scale",20
same,"Pigweed, Palmer plant response rating (0-100)",[18]; [30],50
same,Blackgrass plant response rating,"[19]; 16 g ai/ha, 0 to 100 scale",0
same,Blackgrass plant response rating (0-100),[19]; [30],40
same,"Oat, Wild plant response rating","[20]; 16 g ai/ha, 0 to 100 scale",0
same,"Oat, Wild plant response rating (0-100)",[20]; [30],30
same,"Foxtail, Green plant response rating","[21]; 16 g ai/ha, 0 to 100 scale",0
same,"Foxtail, Green plant response rating (0-100)",[21]; [30],10
same,Ragweed plant response rating,"[22]; 16 g ai/ha, 0 to 100 scale",0
same,Ragweed plant response rating (0-100),[22]; [30],0
same,Kochia plant response rating,kochia (Bassia scoparia) [23],0
same,Soybean plant response rating,"soybean (Glycine max) [24]; 16 g ai/ha, 0 to 100 scale",0
same,Soybean plant response rating (0-100),soybean (Glycine max) [24]; [30],0
same,Wheat plant response rating,"[25]; 16 g ai/ha, 0 to 100 scale",20
same,Wheat plant response rating (0-100),[25]; [30],90
same,Barnyardgrass plant response rating,"[26]; 16 g ai/ha, 0 to 100 scale",10
same,Barnyardgrass plant response rating (0-100),[26]; [30],90
same,"Ryegrass, Italian plant response rating","[27]; 16 g ai/ha, 0 to 100 scale",0
same,"Ryegrass, Italian plant response rating (0-100)",[27]; [30],40
